These results are taken from patent US20240239799A1, “(S)-1-(5-((PYRIDIN-3-YL)THIO)PYRAZIN-2-YL)-4'H,6'H-SPIRO[PIPERIDINE-4,5'-PYRROLO [1,2-B]PYRAZOL]-4'-AMINE DERIVATIVES AND SIMILAR COMPOUNDS AS SHP2 INHIBITORS FOR THE TREATMENT OF E.G. CANCER” (C.N.C.C.S. S.C.A.R.L. COLLEZIONE NAZIONALE DEI COMPOSTI …, priority 2021, published 2024).

Like-named read-outs stand apart in the source and are kept apart here.

Experiment [1] concerns the target T1, SHP-2 enzyme (Met1-Leu525) (Homo sapiens, UniProt Q06124).
T1 construct: synthetized by Origene, Met1-Leu525, cat #TP750155; purchased Origene TP750155
T1 sequence (Q06124 1-525): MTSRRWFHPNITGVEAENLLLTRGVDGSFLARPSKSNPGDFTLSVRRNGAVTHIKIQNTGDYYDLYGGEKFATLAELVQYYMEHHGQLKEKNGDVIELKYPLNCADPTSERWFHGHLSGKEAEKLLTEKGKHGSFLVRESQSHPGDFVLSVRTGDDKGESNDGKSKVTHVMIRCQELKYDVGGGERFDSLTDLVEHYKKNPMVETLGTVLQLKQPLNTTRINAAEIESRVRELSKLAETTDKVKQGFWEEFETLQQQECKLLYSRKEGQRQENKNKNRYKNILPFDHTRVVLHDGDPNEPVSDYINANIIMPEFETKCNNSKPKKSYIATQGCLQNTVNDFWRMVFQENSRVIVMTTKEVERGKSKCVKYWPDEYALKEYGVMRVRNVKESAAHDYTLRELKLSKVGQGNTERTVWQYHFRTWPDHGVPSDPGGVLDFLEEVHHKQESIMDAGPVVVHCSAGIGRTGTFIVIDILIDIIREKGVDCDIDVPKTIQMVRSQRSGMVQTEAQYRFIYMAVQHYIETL
Nature of the experiment: SHP2 inhibition enzymatic assay (DiFMUP substrate, IRS1 peptide activation). As to conditions: 0.5 nM SHP-2, 500 nM IRS1 peptide, 75 μM DiFMUP; read-out: SHP2wt - IC50. In kind it is biochemical. The procedure:
Assay volume of 20 μL/well was assembled in 384 well black polystyrene low-binding microplates (Greiner), using the following buffer: 60 mM HEPES pH 7.2, 75 mM NaCl, 75 mM KCl, 1 mM EDTA pH 8, 0.05% tween-20, 5 mM DTT. The SHP-2 enzyme (synthetized by Origene, Met1-Leu525, cat #TP750155) was used at a final concentration of 0.5 nM.
Briefly, DMSO serially diluted testing compounds were transferred to the bottom of the assay plate. SHP2 was then added together with the IRS1 peptide 30 min post incubation, the DiFMUP substrate was added to the reaction and incubated 30 min at rt. […] The fluorescence was detected by a microplate reader (Envision, PerkinElmer) according to the DiFMUP excitation and emission wavelength. The lower the fluorescence the higher the SHP2 inhibition.
The percentage inhibition is fitted against the compound dilutions with a four-parameter logistic regression. The inflection point (i.e. the concentration at which half-maximal inhibition is achieved) is the IC50.

For experiment [2], the system named is phospho-ERK1/2 (Thr202/Tyr204) in KYSE-520 cells. Nature of the experiment: Phospho-ERK cellular assay (TR-FRET). It counts as cell-based. As to conditions: KYSE-520 cells, 2 h at 37° C., read-out: pERK IC50. The procedure:
ERK phosphorylation was detected using the “Advanced phospho-ERK1/2 (Thr202/Tyr204)” TR-FRET kit (Cisbio, Cat #64AERPEG/H), following the manufacturer reagents and instructions.
Briefly, 20.000/well KYSE-520 cells (DSMZ ACC 371) were plated in 6 μL RPMI-1640 (Invitrogen) growth medium, into 384 white low-volume high base TC microplates (Greiner). After an overnight incubation, cells were treated with DMSO serial diluted compounds and incubated for 2 h at 37° C. After incubation, 2 μL/well of 4X Lysis Buffer (Cisbio 64KL1FDF), were added and incubated with cells for 30 min on gentle shaking. Finally, lysates were added with 2 μL/well of Eu cryptate (donor) and D2 (acceptor) conjugated antibodies (as provided by the Cisbio kit #64AERPEG/H) diluted 1:100 in Detection Buffer (as provided by the Cisbio kit #64AERPEG/H). Plates were then sealed and incubated at rt in the dark. After an overnight incubation, the TR-FRET signal was detected on a suitable reader (Envision, PerkinElmer). The lower the TR-FRET signal the higher the higher the SHP2 inhibition in cells.
The activity of each compound dilution was calculated as percentage between vehicle DMSO treated cells and no cells, 0% inhibition and 100% inhibition respectively. The percentage activity is fitted against the compound dilutions with a four-parameter logistic regression. The inflection point (i.e. the concentration at which half-maximal inhibition is achieved) is the IC50.

Turning to `Nc1nc(N2CCC3(CC2)Cn2nccc2[C@H]3N)cnc1Sc1ccnc(N)c1Cl` [Example 4, (S)-1-(6-amino-5-((2-amino-3-chloropyridin-4-yl)thio)pyrazin-2-yl)-4′H,6′H-spiro[piperidine-4,5′-pyrrolo[1,2-b]pyrazol]-4′-amine], the IC50 (commonly the point on the concentration scale where inhibition reaches its midpoint) in experiment [1] was at most 50 nM; in experiment [2] (Homo sapiens, KYSE-520, 2 h) it was below 100 nM. The like results for `N[C@@H]1c2ccnn2CC12CCN(c1cnc(Sc3ccn4c(Cl)cnc4c3Cl)cn1)CC2` [Example 48, (S)-1-(5-((3,8-dichloroimidazo[1,2-a]pyridin-7-yl)thio)pyrazin-2-yl)-4′H,6′H-spiro[piperidine-4,5′-pyrrolo[1,2-b]pyrazol]-4′-amine] were, in that order, at most 50 nM and below 100 nM. For the molecule `N[C@@H]1c2ccnn2CC12CCN(c1cnc(SC3=C(Cl)C4=NC(=O)CN4C=C3)cn1)CC2` [Example 58, (S)-7-((5-(4′-amino-4′H,6′H-spiro[piperidine-4,5′-pyrrolo[1,2-b]pyrazol]-1-yl)pyrazin-2-yl)thio)-8-chloroimidazo[1,2-a]pyridin-2(3H)-one], the IC50 in experiment [1] was at most 50 nM; in experiment [2] (Homo sapiens) it was 100 to 500 nM. `N[C@@H]1c2ccnn2CC12CCN(c1ccc(Oc3cccc(Cl)c3Cl)nc1)CC2` [Example 90, (S)-1-(6-(2,3-dichlorophenoxy)pyridin-3-yl)-4′H,6′H-spiro[piperidine-4,5′-pyrrolo[1,2-b]pyrazol]-4′-amine]: the IC50 in experiment [1] fell in the range of 50 to 300 nM.

Regarding `CNC(=O)c1ccn(-c2nccc(Sc3cnc(N4CCC5(CC4)Cn4nccc4[C@H]5N)cn3)c2Cl)c1` [Example 67, (S)-1-(4-((5-(4′-amino-4′H,6′H-spiro[piperidine-4,5′-pyrrolo[1,2-b]pyrazol]-1-yl)pyrazin-2-yl)thio)-3-chloropyridin-2-yl)-N-methyl-1H-pyrrole-3-carboxamide], the IC50 in experiment [1] was at most 50 nM; in experiment [2] (Homo sapiens, KYSE-520, 2 h), below 100 nM.

On to `N[C@@H]1c2ccnn2CC12CCN(c1ncc(Sc3ccnc4c3OC[C@@H]3CCCN43)c3nccn13)CC2` [Example 17, (S)-1-(8-(((S)-6a,7,8,9-tetrahydro-6H-pyrido[3,2-b]pyrrolo[1,2-d][1,4]oxazin-4-yl)thio)imidazo[1,2-c]pyrimidin-5-yl)-4′H,6′H-spiro[piperidine-4,5′-pyrrolo[1,2-b]pyrazol]-4′-amine], for which the IC50 is at most 50 nM in experiment [1] and below 100 nM in experiment [2] (Homo sapiens, KYSE-520, 2 h). The like results for `Cc1nccc(Sc2cnc(N3CCC4(CC3)Cn3nccc3[C@H]4N)cn2)c1F` [Example 81, (S)-1-(5-((3-fluoro-2-methylpyridin-4-yl)thio)pyrazin-2-yl)-4′H,6′H-spiro[piperidine-4,5′-pyrrolo[1,2-b]pyrazol]-4′-amine] were, in that order, at most 50 nM and below 100 nM.

With `Cc1nc(N2CCC3(CC2)Cn2nccc2[C@H]3N)c(Cl)c(=O)n1-c1cccc(Cl)c1Cl` (single isomer, unassigned) [Example 78a], the IC50 in experiment [1] was at most 50 nM; in experiment [2], 100 to 500 nM. With `Nc1nccc(Sc2cnc(N3CCC4(CC3)Cn3nncc3[C@H]4N)n3ccnc23)c1Cl` [Example 39, (S)-1-(8-((2-amino-3-chloropyridin-4-yl)thio)imidazo[1,2-c]pyrimidin-5-yl)-4′H,6′H-spiro[piperidine-4,5′-pyrrolo[1,2-c][1,2,3]triazol]-4′-amine], the IC50 in experiment [1] was at most 50 nM; in experiment [2] (Homo sapiens, KYSE-520, 2 h), 100 to 500 nM. Turning to `N[C@@H]1c2ccnn2CC12CCN(c1cnc(Sc3cccc(Cl)c3Cl)cn1)CC2` [Example 83, (S)-1-(5-((2,3-dichlorophenyl)thio)pyrazin-2-yl)-4′H,6′H-spiro[piperidine-4,5′-pyrrolo[1,2-b]pyrazol]-4′-amine], the IC50 in experiment [1] was at most 50 nM; in experiment [2] (Homo sapiens, KYSE-520, 2 h) it was below 100 nM.

Regarding `Cc1nc(N2CCC3(CC2)Cn2nccc2[C@H]3N)c(Cl)c(=O)n1-c1cccc(Cl)c1Cl` (single isomer, unassigned) [Example 78b], the values for the IC50 in experiment [1] and in experiment [2] were above 300 nM and above 500 nM, respectively.

In the case of `Cn1c(N2CCC3(CC2)Cn2nccc2[C@H]3N)nc2[nH]nc(-c3ccnc(N)c3Cl)c2c1=O` [Example 46, (S)-3-(2-amino-3-chloropyridin-4-yl)-6-(4′-amino-4′H,6′H-spiro[piperidine-4,5′-pyrrolo[1,2-b]pyrazol]-1-yl)-5-methyl-1,5-dihydro-4H-pyrazolo[3,4-d]pyrimidin-4-one], the IC50 is at most 50 nM in experiment [1] and below 100 nM in experiment [2] (Homo sapiens, KYSE-520, 2 h). The like results for `N[C@@H]1c2ccnn2CC12CCN(c1nc3nc(Sc4cccnc4C(F)(F)F)cnc3[nH]1)CC2` [Example 1, (S)-1-(5-((2-(trifluoromethyl)pyridin-3-yl)thio)-1H-imidazo[4,5-b]pyrazin-2-yl)-4′H,6′H-spiro[piperidine-4,5′-pyrrolo[1,2-b]pyrazol]-4′-amine] were, in that order, at most 50 nM and above 500 nM. The like results for `Nc1nc(N2CCC3(CC2)Cn2nncc2[C@H]3N)cnc1Sc1cccnc1C(F)(F)F` [Example 36, (S)-1-(6-amino-5-((2-(trifluoromethyl)pyridin-3-yl)thio)pyrazin-2-yl)-4′H,6′H-spiro[piperidine-4,5′-pyrrolo[1,2-c][1,2,3]triazol]-4′-amine] were, in that order, at most 50 nM and above 500 nM. Take `Cc1cn2ccc(Sc3cnc(N4CCC5(CC4)Cn4nccc4[C@H]5N)cn3)c(Cl)c2n1` [Example 43, (S)-1-(5-((8-chloro-2-methylimidazo[1,2-a]pyridin-7-yl)thio)pyrazin-2-yl)-4′H,6′H-spiro[piperidine-4,5′-pyrrolo[1,2-b]pyrazol]-4′-amine]: the IC50 in experiment [2] (Homo sapiens, KYSE-520, 2 h) was below 100 nM. Still for that read-out and setting: the value for `N[C@@H]1c2ccnn2CC12CCN(c1cnc(Sc3ccnc(-n4cccn4)c3Cl)cn1)CC2` [Example 33, (S)-1-(5-((3-chloro-2-(1H-pyrazol-1-yl)pyridin-4-yl)thio)pyrazin-2-yl)-4′H,6′H-spiro[piperidine-4,5′-pyrrolo[1,2-b]pyrazol]-4′-amine] was below 100 nM. Turning to `Cc1nccc(-c2ncc3c(N4CCC5(CC4)Cn4nccc4[C@H]5N)nccn23)c1F` [Example 89, (S)-1-(3-(3-fluoro-2-methylpyridin-4-yl)imidazo[1,5-a]pyrazin-8-yl)-4′H,6′H-spiro[piperidine-4,5′-pyrrolo[1,2-b]pyrazol]-4′-amine], in experiment [1], the IC50 fell in the range of 50 to 300 nM. As for `Nc1nc(N2CCC3(CC2)Cn2nccc2[C@H]3N)cnc1Sc1ccn2ccnc2c1Cl` [Example 44, (S)-1-(6-amino-5-((8-chloroimidazo[1,2-a]pyridin-7-yl)thio)pyrazin-2-yl)-4′H,6′H-spiro[piperidine-4,5′-pyrrolo[1,2-b]pyrazol]-4′-amine], in experiment [2] (Homo sapiens, KYSE-520, 2 h), the IC50 is below 100 nM. In the case of `Cc1c(N2CCC3(CC2)Cn2nccc2[C@H]3N)nc(C)n(-c2cccc(Cl)c2Cl)c1=O` [Example 88, (S)-6-(4′-amino-4′H,6′H-spiro[piperidine-4,5′-pyrrolo[1,2-b]pyrazol]-1-yl)-3-(2,3-dichlorophenyl)-2,5-dimethylpyrimidin-4(3H)-one], the IC50 in experiment [1] was at most 50 nM. As for `Cc1nccc(Sc2cnc(N3CCC4(CC3)Cn3cccc3[C@H]4N)cn2)c1F` [Example 87, (S)-1-(5-((3-fluoro-2-methylpyridin-4-yl)thio)pyrazin-2-yl)-1′H,3′H-spiro[piperidine-4,2′-pyrrolizin]-1′-amine], the IC50 in experiment [1] is at most 50 nM.
